Measured values as given in US8466113B2, “4-isopropylphenyl glucitol compounds as SGLT1 inhibitors” (Taisho Pharmaceutical Co., Ltd., priority 2009, dated 2013).

How the values were obtained:
[1] = Kidney concentrations after repeated oral administration for 3 days; assay type: in vivo, rat; settings: 3 mg/kg once a day for 3 days, male Sprague-Dawley rats, 48 hours after final administration
Description: (2) Kidney Concentrations of Inventive Compounds After Repeated Oral Administration for 3 Days
SD/IGS rats at 7 weeks of age (male, non-fasting, Charles River Laboratories Japan Inc.) were orally administered once a day for 3 consecutive days with compound 1-2, 5-2, 6-2, 13-2 or 15-2 according to the present invention (3 mg/kg) prepared in a 0.5% aqueous CMC solution. At 48 hours after the final drug administration, the rats were exsanguinated via the postcaval vein under isoflurane anesthesia, and their kidneys were excised after they were confirmed to be euthanized. After the tissue surface was washed with physiological saline, each tissue was measured for its weight and homogenized in 4 volumes of purified water under ice cooling. The drug concentration in each homogenate was determined in the same manner as shown in Test Example 3(1) by LC-MS/MS using compound 11 as an internal standard substance.

human SGLT2 = biological target: T1, human SGLT2 (Homo sapiens, UniProt P31639); experiment: Inhibition test for sodium-dependent sugar uptake in CHO-K1 cells stably expressing human SGLT2, Method B; assay type: cell-based; settings: uptake 37° C., 60 minutes, read-out: IC50 for hSGLT2 Method B
T1 construct: expressed in transfected cells; host or cells: CHO-K1
T1 sequence (P31639 1-672): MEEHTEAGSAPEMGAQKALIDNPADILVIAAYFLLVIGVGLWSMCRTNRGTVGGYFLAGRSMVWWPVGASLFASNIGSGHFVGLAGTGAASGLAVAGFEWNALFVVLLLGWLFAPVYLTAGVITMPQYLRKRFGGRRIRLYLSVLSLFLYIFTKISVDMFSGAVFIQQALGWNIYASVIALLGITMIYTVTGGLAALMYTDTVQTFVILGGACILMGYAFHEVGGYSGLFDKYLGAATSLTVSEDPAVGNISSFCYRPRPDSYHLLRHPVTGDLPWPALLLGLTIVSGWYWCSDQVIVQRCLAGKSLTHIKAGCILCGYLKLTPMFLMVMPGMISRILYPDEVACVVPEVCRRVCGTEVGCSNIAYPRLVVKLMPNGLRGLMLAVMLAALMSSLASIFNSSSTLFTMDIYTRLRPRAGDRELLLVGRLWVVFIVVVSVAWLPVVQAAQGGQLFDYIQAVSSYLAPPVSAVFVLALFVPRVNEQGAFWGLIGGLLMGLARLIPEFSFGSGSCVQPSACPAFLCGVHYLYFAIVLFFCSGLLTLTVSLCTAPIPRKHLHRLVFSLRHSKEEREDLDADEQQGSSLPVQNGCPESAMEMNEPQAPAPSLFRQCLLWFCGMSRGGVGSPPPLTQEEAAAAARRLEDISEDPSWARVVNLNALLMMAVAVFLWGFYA
Description: (2) Creation of CHO-K1 Cells Stably Expressing Human SGLT2
Method B: A plasmid vector expressing human SGLT2 protein was transfected into CHO-K1 cells using lipofectamine LTX (Invitrogen). The cells were cultured in the presence of 1000 μg/mL geneticin to select resistant strains, followed by screening in the system shown below using sugar uptake capacity as an indicator to obtain SGLT2-expressing cells.
(3) Inhibition Test for Sodium-Dependent Sugar Uptake in Stably Expressing Cells
The stably expressing cells prepared above were used in the following test.
Pretreatment buffer (140 mM choline chloride, 2 mM KCl, 1 mM CaCl2, 1 mM MgCl2, 10 mM HEPES/5 mM Tris, pH 7.4) was added in a volume of 200 μL to the cells stably expressing SGLT1 or 2 mL for Method A and 200 μL for Method B to the cells stably expressing SGLT2, followed by incubation for 20 minutes. The pretreatment buffer was removed and replaced by uptake buffer containing a test compound (1 mM methyl α-D-glucopyranoside (containing [^14C]methyl α-D-glucopyranoside), 140 mM NaCl, 2 mM KCl, 1 mM CaCl2, 1 mM MgCl2, 10 mM HEPES/5 mM Tris, pH 7.4) in a volume of 75 μL for SGLT1 and SGLT2 in Method B or 200 μL for SGLT2 in Method A. Uptake reaction was performed at 37° C. for 30 minutes (SGLT1) or 60 minutes (SGLT2). After the reaction, the cells were washed twice with washing buffer (10 mM methyl α-D-glucopyranoside, 140 mM choline chloride, 2 mM KCl, 1 mM CaCl2, 1 mM MgCl2, 10 mM HEPES/5 mM Tris, pH 7.4) in a volume of 200 μL for SGLT1 and SGLT2 in Method B or 2 mL for SGLT2 in Method A, and then dissolved in a 0.25 M NaOH solution (75 μL for SGLT1 and SGLT2 in Method B or 400 μL for SGLT2 in Method A). A liquid scintillator (Perkin Elmer) was added and mixed well with each sample, followed by measurement of radioactivity using a β-ray analyzer. For the control group, uptake buffer containing no test compound was prepared. Moreover, another uptake buffer containing choline chloride instead of NaCl was also prepared for basal uptake.
For determination of IC50 values, test compounds prepared at 6 appropriate concentrations were used and their concentrations required for 50% inhibition of the amount of sugar uptake (IC50 values) were calculated relative to the amount of sugar uptake in the control group (100%).

Question: Which results are given for Cc1cc(/C=C/C(C)(C)C(=O)NC(C)(C)C(=O)NCCN(C)C)ccc1Cc1cc([C@@H]2O[C@H](CO)[C@@H](O)[C@H](O)[C@H]2O)c(O)cc1C(C)C [Example 1-2]?
Answer: Concentration of compounds in kidney after 3 days continuous oral administration, After 2 days [1]: BLQ^# (BLQ means below lower limit of quantification(5 ng/g)); IC50 (human SGLT2): 74 nM

Question: For Cc1cc(/C=C/C(C)(C)C(=O)NC(C)(C)C(=O)N2CCC(N(C)C)CC2)ccc1Cc1cc([C@@H]2O[C@H](CO)[C@@H](O)[C@H](O)[C@H]2O)c(O)cc1C(C)C [Example 5-2], which “Concentration of compounds in kidney after 3 days continuous oral administration, After 2 days” value (shortened to “Concentration of compounds in kidney”) [1] is on record?
Answer: The value was “BLQ (BLQ means below lower limit of quantification(5 ng/g))”.

Question: And the IC50 (human SGLT2)?
Answer: The IC50 was 30 nM.

Question: With Cc1cc(/C=C/C(C)(C)C(=O)NC(C)(C)C(=O)NCC(C)(C)N)ccc1Cc1cc([C@@H]2O[C@H](CO)[C@@H](O)[C@H](O)[C@H]2O)c(O)cc1C(C)C [Example 6-2] as the compound, how does the “Concentration of compounds in kidney” value [1] read?
Answer: Its value is “BLQ (BLQ means below lower limit of quantification(5 ng/g))”.

Question: And the IC50 (human SGLT2)?
Answer: The IC50 was 64 nM.

Question: Which “Concentration of compounds in kidney” value [1] does the source give for COc1cc(C(C)C)c(Cc2ccc(/C=C/C(C)(C)C(=O)NC(C)(C)C(=O)NCC(C)(C)N)cc2C)cc1[C@@H]1O[C@H](CO)[C@@H](O)[C@H](O)[C@H]1O [Example 13-2] here?
Answer: The value was “BLQ (BLQ means below lower limit of quantification(5 ng/g))”.

Question: What about the IC50 (human SGLT2) of the same compound?
Answer: The IC50 was 322 nM.

Question: Which results are given for COc1cc(C(C)C)c(Cc2ccc(/C=C/C(C)(C)C(=O)NC(C)(C)C(=O)NCCN(C)C)cc2)cc1[C@@H]1O[C@H](CO)[C@@H](O)[C@H](O)[C@H]1O [Example 15-2]?
Answer: Concentration of compounds in kidney after 3 days continuous oral administration, After 2 days [1]: BLQ (BLQ means below lower limit of quantification(5 ng/g)); IC50 (human SGLT2): 20 nM
